Values after ≈ are worked out from the molar mass of the structure shown. Where two headings read alike, the source gives them in different places. One block for each molecule: values may come before it.
Tests used:
[1] = test system: LNCaP cells; assay: Cell viability (AlamarBlue), LNCaP prostate cancer cells; assay type: cell-based, human; design: key to EC50 (μM) in LNCaP cells: Inactive: less than 50% inhibition at the highest concentration tested at 50 μM; conditions: 72 hours of treatment
Experimental: (§1) In another exemplary method, half maximal effective concentration (EC50) was determined for some compounds and their isomers as disclosed herein in a variety of human cancer cell lines. In brief, cells from two prostate cancer cell lines (LNCaP, 22RV1), one glioblastoma cell line (U87), one breast cancer cell line (MCF7), a glioma cell line (LN18), a normal prostate cell line (RWPE1), and a glioblastoma cell line (T98G) were plated in a multi-well plate. After 24 hours, one of the compounds herein was added to the well at increasing concentrations. After 72 hours of treatment, cell viability was assessed using AlamrBlue® (Invitrogen) and fluorescence was read using the CLARIOstar Plus Multilabel Plate Reader (BMG Labtech). Samples were normalized to no treatment controls. EC50 values were determined using GraphPad Prism.

[2] = test system: 22RV1 cells; assay: Cell viability (AlamarBlue), 22RV1 prostate cancer cells; assay type: cell-based, human; design: key to EC50 (μM) in 22RV1 cells: Inactive: less than 50% inhibition at the highest concentration tested at 50 μM; conditions: 72 hours of treatment
Experimental: as §1

[3] = test system: RWPE1 cells; assay: Cell viability (AlamarBlue), RWPE1 normal prostate cells; assay type: cell-based, human; design: key to EC50 (μM) in RWPE1 cells: Inactive: less than 50% inhibition at the highest concentration tested at 50 μM; conditions: normal prostate cell line; for EC50: Homo sapiens, RWPE-1, 72 hours of treatment; for EC50 (μM) in RWPE1 cells: 72 hours of treatment
Experimental: as §1

[4] = test system: U87 cells; assay: Cell viability (AlamarBlue), U87 glioblastoma cells; assay type: cell-based, human; design: key to EC50 (μM) in U87 cells: Inactive: less than 50% inhibition at the highest concentration tested at 50 μM; conditions: 72 hours of treatment
Experimental: as §1

[5] = Kinetic solubility in aqueous PBS buffer (HPLC-MS); assay type: physicochemical; conditions: kinetic from dmso stock
Experimental: In another exemplary method, central nervous system multiparameter optimization (CNS MPO) score and kinetic solubility of selected compounds was determined. CNS MPO score for compounds and their isomers disclosed herein were calculated using an algorithm that uses a weighted scoring function assessing 6 key physicochemical properties (clogP, clogD, MW, TPSA, HBD, and pKa) for blood-brain-barrier (BBB penetration). CNS MPO score ranged from 0 and 6.0 with scores≥4.0 used as a cut-off to select compounds that can have a high probability of accumulating in the CNS. Kinetic solubility of a compound is the maximum solubility of the fastest precipitating species of the compound. Kinetic solubility was determined by preparing a concentrated stock solution for compounds and their isomers disclosed herein in an organic solvent (DMSO), after which the solution was mixed with an aqueous PBS buffer and then filtered. Filtrate was tested to quantify the kinetic solubilty using HPLC-MS calibration curve. The CNS MPO Score and kinetic solubility of the compounds tested are provided in Table 7 where “ND” means not determined.

[6] = test system: cancer cell; assay: Cancer cell viability, cell line not stated (per-compound ranges in description); assay type: cell-based; conditions: 'In some embodiments', values worded 'about', read-out: EC50 in cancer cell viability (range stated in description)
Experimental: as §1

[7] = 'In some embodiments', values worded 'about', read-out: kinetic solubility (range stated in description)

Structure (SMILES): COC1CCC(C(=O)NC(=O)Nc2ccc(Oc3ncco3)c(C)c2)CC1 (stereo not drawn) [Compound 21, 1-(4-methoxycyclohexanecarbonyl)-3-[3-methyl-4-(1,3-oxazol-2-yloxy)phenyl]urea]
- EC50 ([1]; Homo sapiens, LNCaP, 72 h): 19.7 µM
- EC50 ([2]; Homo sapiens, 22Rv1, 72 h): 24 µM
- EC50 [3]: 33 µM
- EC50 ([4]; Homo sapiens, U-87 MG, 72 h): 20.8 µM

Structure (SMILES): COC1CCC(C(=O)NC(=O)Nc2ccc(Oc3cccnn3)c(C)c2)CC1 (stereo not drawn) [Compound 22, 1-(4-methoxycyclohexanecarbonyl)-3-[3-methyl-4-(pyridazin-3-yloxy)phenyl]urea]
- EC50 (μM) in LNCaP cells [1]: Inactive
- EC50 (μM) in 22RV1 cells [2]: Inactive
- EC50 (μM) in RWPE1 cells [3]: Inactive
- EC50 (μM) in U87 cells [4]: Inactive

Structure (SMILES): COC1CCC(C(=O)NC(=O)Nc2ccc(Oc3ncc(Cl)cn3)cc2F)CC1 (stereo not drawn) [Compound 23, 3-{4-[(5-chloropyrimidin-2-yl)oxy]-2-fluorophenyl}-1-(4-methoxycyclohexanecarbonyl)urea]
- EC50 (μM) in LNCaP cells [1]: Inactive
- EC50 ([2]; Homo sapiens, 22Rv1, 72 h): 30.6 µM
- EC50 (μM) in RWPE1 cells [3]: Inactive
- EC50 (μM) in U87 cells [4]: Inactive

Structure (SMILES): COC1CCC(C(=O)NC(=O)Nc2ccc(Oc3ccc(Cl)cn3)cc2F)CC1 (stereo not drawn) [Compound 24, 3-{4-[(5-chloropyridin-2-yl)oxy]-2-fluorophenyl}-1-(4-methoxycyclohexanecarbonyl)urea]
- EC50 (μM) in LNCaP cells [1]: Inactive
- EC50 (μM) in 22RV1 cells [2]: Inactive
- EC50 [3]: 31 µM
- EC50 (μM) in U87 cells [4]: Inactive

Structure (SMILES): COC1CC(C(=O)NC(=O)Nc2ccc(Oc3nc4ccccc4s3)c(C)c2)C1 (stereo not drawn) [Compound 56, N-((4-(benzo[d]thiazol-2-yloxy)-3-methylphenyl)carbamoyl)-3-methoxycyclobutane-1-carboxamide]
- solubility kinetic ([5]; DMSO stock mixed with aqueous PBS buffer, filtered, read-out: Kinetic Solubility): 1 µM (≈ 0.411 µg/mL)
- EC50 ([1]; Homo sapiens, LNCaP, 72 h): 0.15 µM
- EC50 ([2]; Homo sapiens, 22Rv1, 72 h): 0.35 µM
- EC50 [3]: 22.4 µM
- EC50 ([4]; Homo sapiens, U-87 MG, 72 h): 0.89 µM

Structure (SMILES): O=C(NC(=O)C1CCCCC1)Nc1ccc(Oc2ncc(Cl)cn2)c(F)c1 [Compound 70, N-((4-((5-chloropyrimidin-2-yl)oxy)-3-fluorophenyl)carbamoyl)cyclohexanecarboxamide]
- EC50 (μM) in LNCaP cells [1]: Inactive
- EC50 (μM) in 22RV1 cells [2]: Inactive
- EC50 (μM) in RWPE1 cells [3]: Inactive
- EC50 (μM) in U87 cells [4]: Inactive

Structure (SMILES): COC12CC(C(=O)NC(=O)Nc3ccc(Oc4nccs4)c(C)c3)(C1)C2 [drawing 270, 3-methoxy-N-((3-methyl-4-(thiazol-2-yloxy)phenyl)carbamoyl)bicyclo[1.1.1]pentane-1-carboxamide]
- solubility kinetic [5, 7]: 1.5 to 3.5 µM (≈ 0.56 to 1.31 µg/mL)
- EC50 [6]: 0.04 to 0.08 µM

Structure (SMILES): COC12CC(C(=O)NC(=O)Nc3ccc(Oc4ccc(Cl)cn4)c(C)c3)(C1)C2 [drawing 271, N-((4-((5-chloropyridin-2-yl)oxy)-3-methylphenyl)carbamoyl)-3-methoxybicyclo[1.1.1]pentane-1-carboxamide]
- EC50 [6]: 0.01 to 0.16 µM

Structure (SMILES): COC12CC(C(=O)NC(=O)Nc3ccc(Oc4ncc(Cl)cn4)c(C)c3)(C1)C2 [drawing 272, N-((4-((5-chloropyrimidin-2-yl)oxy)-3-methylphenyl)carbamoyl)-3-methoxybicyclo[1.1.1]pentane-1-carboxamide]
- solubility kinetic [5, 7]: 1.5 to 3.5 µM (≈ 0.604 to 1.41 µg/mL)
- EC50 [6]: 0.04 to 0.08 µM

Structure (SMILES): COC12CC(C(=O)NC(=O)Nc3ccc(Oc4ccccn4)c(C)c3)(C1)C2 [drawing 273, 3-methoxy-N-((3-methyl-4-(pyridin-2-yloxy)phenyl)carbamoyl)bicyclo[1.1.1]pentane-1-carboxamide]
- EC50 [6]: 0.1 to 0.4 µM

Structure (SMILES): COC12CC(C(=O)NC(=O)Nc3ccc(Oc4ncccn4)c(C)c3)(C1)C2 [drawing 274, 3-methoxy-N-((3-methyl-4-(pyrimidin-2-yloxy)phenyl)carbamoyl)bicyclo[1.1.1]pentane-1-carboxamide]
- solubility kinetic [5, 7]: 25 to 30 µM (≈ 9.21 to 11.1 µg/mL)
- EC50 [6]: 0.5 to 4 µM

Structure (SMILES): COC12CC(C(=O)NC(=O)Nc3ccc(Oc4ncc(F)cn4)c(C)c3)(C1)C2 [drawing 275, N-((4-((5-fluoropyrimidin-2-yl)oxy)-3-methylphenyl)carbamoyl)-3-methoxybicyclo[1.1.1]pentane-1-carboxamide]
- solubility kinetic [5, 7]: 85 to 91 µM (≈ 32.8 to 35.2 µg/mL)
- EC50 [6]: 0.5 to 4 µM

Structure (SMILES): COC12CC(C(=O)NC(=O)Nc3ccc(Oc4ccc(F)cn4)c(C)c3)(C1)C2 [drawing 276, N-((4-((5-fluoropyridin-2-yl)oxy)-3-methylphenyl)carbamoyl)-3-methoxybicyclo[1.1.1]pentane-1-carboxamide]
- EC50 [6]: 0.05 to 0.35 µM

Structure (SMILES): COC12CC(C(=O)NC(=O)Nc3cc(C)c(Oc4ccc(F)cn4)c(F)c3)(C1)C2 [drawing 278, N-((3-fluoro-4-((5-fluoropyridin-2-yl)oxy)-5-methylphenyl)carbamoyl)-3-methoxybicyclo[1.1.1]pentane-1-carboxamide]
- EC50 [6]: 0.087 to 0.63 µM

Structure (SMILES): COC12CC(C(=O)NC(=O)Nc3ccc(C)c(Oc4ccccn4)c3)(C1)C2 [drawing 284, 3-methoxy-N-((4-methyl-3-(pyridin-2-yloxy)phenyl)carbamoyl)bicyclo[1.1.1]pentane-1-carboxamide]
- EC50 [6]: 0.02 to 0.07 µM

Now from value to molecule, other results behind:

- EC50 ([1]; Homo sapiens, LNCaP, 72 h): 1.8 µM
- EC50 ([2]; Homo sapiens, 22Rv1, 72 h): 1.1 µM
- EC50 ([4]; Homo sapiens, U-87 MG, 72 h): 1.3 µM
Structure (SMILES): COC1CCC(C(=O)NC(=O)Nc2ccc(Oc3ncc(Cl)cn3)c(F)c2)CC1 (single isomer, unassigned) [Compound 14A, N-((4-((5-chloropyrimidin-2-yl)oxy)-3-fluorophenyl)carbamoyl)-4-methoxycyclohexane-1-carboxamide]
- EC50 [3]: 1.3 µM

- EC50 (μM) in 22RV1 cells [2]: Inactive
- EC50 (μM) in U87 cells [4]: Inactive
Structure (SMILES): COC1CCC(C(=O)NC(=O)Nc2ccc(Oc3ncc(Cl)cn3)c(F)c2)CC1 (single isomer, unassigned) [Compound 14B, N-((4-((5-chloropyrimidin-2-yl)oxy)-3-fluorophenyl)carbamoyl)-4-methoxycyclohexane-1-carboxamide]
- EC50 (μM) in RWPE1 cells [3]: Inactive

- EC50 [1]: 3.9 µM
- EC50 [2]: 17.3 µM
- EC50 [4]: 22 µM
Structure (SMILES): COC1CC(C(=O)NC(=O)Nc2ccc(Oc3ccc(F)cn3)c(C)c2)C1 (single isomer, unassigned) [Compound 15B, N-((4-((5-fluoropyridin-2-yl)oxy)-3-methylphenyl)carbamoyl)-3-methoxycyclobutanecarboxamide]
- EC50 (μM) in RWPE1 cells [3]: Inactive

- EC50 [1]: 5 µM
- EC50 [2]: 21.2 µM
- EC50 [4]: 24 µM
Structure (SMILES): COC1CC(C(=O)NC(=O)Nc2ccc(Oc3ccc(C#N)cn3)c(C)c2)C1 (single isomer, unassigned) [Compound 16B, N-((4-((5-cyanopyridin-2-yl)oxy)-3-methylphenyl)carbamoyl)-3-methoxycyclobutane-1-carboxamide]
- EC50 (μM) in RWPE1 cells [3]: Inactive

- EC50 [1]: 1.3 µM
- EC50 [2]: 4.2 µM
- EC50 [4]: 13.7 µM
Structure (SMILES): COC1CC(C(=O)NC(=O)Nc2ccc(Oc3ccc(Cl)cn3)c(C)c2)C1 (single isomer, unassigned) [Compound 19B, 1-{4-[(5-chloropyridin-2-yl)oxy]-3-methylphenyl}-3-(3-methoxycyclobutanecarbonyl) urea]
- EC50 (μM) in RWPE1 cells [3]: Inactive

- EC50 [1]: 5 µM
- EC50 [2]: 15.3 µM
- EC50 [4]: 31.2 µM
Structure (SMILES): COC1CC(C(=O)NC(=O)Nc2ccc(Oc3ncc(Cl)cn3)c(C)c2)C1 (single isomer, unassigned) [Compound 20B, N-((4-((5-chloropyrimidin-2-yl)oxy)-3-methylphenyl)carbamoyl)-3-methoxycyclobutane-1-carboxamide]
- EC50 (μM) in RWPE1 cells [3]: Inactive

- EC50 [1]: 0.9 µM
- EC50 [2]: 2.8 µM
- EC50 [4]: 3.7 µM
Structure (SMILES): COC1CC(C(=O)NC(=O)Nc2ccc(Oc3nccs3)c(C)c2)C1 (single isomer, unassigned) [Compound 45A, 3-methoxy-N-((3-methyl-4-(thiazol-2-yloxy)phenyl)carbamoyl)cyclobutane-1-carboxamide]
- EC50 (μM) in RWPE1 cells [3]: Inactive

- EC50 [1]: 4 µM
- EC50 [2]: 14.2 µM
- EC50 [4]: 12.2 µM
Structure (SMILES): COC1CC(C(=O)NC(=O)Nc2ccc(Oc3nccs3)c(C)c2)C1 (single isomer, unassigned) [Compound 45B, 3-methoxy-N-((3-methyl-4-(thiazol-2-yloxy)phenyl)carbamoyl)cyclobutane-1-carboxamide]
- EC50 (μM) in RWPE1 cells [3]: Inactive
